Source: ChEMBL document CHEMBL6096658, “Discovery of Potent, Highly Selective, and Efficacious SMARCA2 Degraders” (J Med Chem, 2025)
Calls of active or inactive are those of the source. The rule behind the calls is not given here.

Key:
[1] = target: SWI/SNF-related matrix-associated actin-dependent regulator of chromatin subfamily A member 2 (Homo sapiens, UniProt P51531); experiment: Binding affinity to SMARCA2 (unknown origin) incubated for 30 mins by HTRF assay
[2] = target: SWI/SNF-related matrix-associated actin-dependent regulator of chromatin subfamily A member 4 (Homo sapiens, UniProt P51532); experiment: Binding affinity to SMARCA4 (unknown origin) incubated for 30 mins by HTRF assay
[3] = target: von Hippel-Lindau disease tumor suppressor (Homo sapiens, UniProt P40337); experiment: Binding affinity to VHL (unknown origin) incubated for 30 mins by HTRF assay
[4] = target: T1, von Hippel-Lindau disease tumor suppressor/SWI/SNF-related matrix-associated actin-dependent regulator of chromatin subfamily A member 2 (Homo sapiens, UniProt P51531+P40337); experiment: PROTAC activity at VHL/SMARCA2 in human HT-1080 cells assessed as induction of SMARCA2 degradation incubated for 24 hrs by Nano-Glo HiBiT Lytic Detection Assay; format: cell-based
Target sequence in this assay (P51531 whole entry): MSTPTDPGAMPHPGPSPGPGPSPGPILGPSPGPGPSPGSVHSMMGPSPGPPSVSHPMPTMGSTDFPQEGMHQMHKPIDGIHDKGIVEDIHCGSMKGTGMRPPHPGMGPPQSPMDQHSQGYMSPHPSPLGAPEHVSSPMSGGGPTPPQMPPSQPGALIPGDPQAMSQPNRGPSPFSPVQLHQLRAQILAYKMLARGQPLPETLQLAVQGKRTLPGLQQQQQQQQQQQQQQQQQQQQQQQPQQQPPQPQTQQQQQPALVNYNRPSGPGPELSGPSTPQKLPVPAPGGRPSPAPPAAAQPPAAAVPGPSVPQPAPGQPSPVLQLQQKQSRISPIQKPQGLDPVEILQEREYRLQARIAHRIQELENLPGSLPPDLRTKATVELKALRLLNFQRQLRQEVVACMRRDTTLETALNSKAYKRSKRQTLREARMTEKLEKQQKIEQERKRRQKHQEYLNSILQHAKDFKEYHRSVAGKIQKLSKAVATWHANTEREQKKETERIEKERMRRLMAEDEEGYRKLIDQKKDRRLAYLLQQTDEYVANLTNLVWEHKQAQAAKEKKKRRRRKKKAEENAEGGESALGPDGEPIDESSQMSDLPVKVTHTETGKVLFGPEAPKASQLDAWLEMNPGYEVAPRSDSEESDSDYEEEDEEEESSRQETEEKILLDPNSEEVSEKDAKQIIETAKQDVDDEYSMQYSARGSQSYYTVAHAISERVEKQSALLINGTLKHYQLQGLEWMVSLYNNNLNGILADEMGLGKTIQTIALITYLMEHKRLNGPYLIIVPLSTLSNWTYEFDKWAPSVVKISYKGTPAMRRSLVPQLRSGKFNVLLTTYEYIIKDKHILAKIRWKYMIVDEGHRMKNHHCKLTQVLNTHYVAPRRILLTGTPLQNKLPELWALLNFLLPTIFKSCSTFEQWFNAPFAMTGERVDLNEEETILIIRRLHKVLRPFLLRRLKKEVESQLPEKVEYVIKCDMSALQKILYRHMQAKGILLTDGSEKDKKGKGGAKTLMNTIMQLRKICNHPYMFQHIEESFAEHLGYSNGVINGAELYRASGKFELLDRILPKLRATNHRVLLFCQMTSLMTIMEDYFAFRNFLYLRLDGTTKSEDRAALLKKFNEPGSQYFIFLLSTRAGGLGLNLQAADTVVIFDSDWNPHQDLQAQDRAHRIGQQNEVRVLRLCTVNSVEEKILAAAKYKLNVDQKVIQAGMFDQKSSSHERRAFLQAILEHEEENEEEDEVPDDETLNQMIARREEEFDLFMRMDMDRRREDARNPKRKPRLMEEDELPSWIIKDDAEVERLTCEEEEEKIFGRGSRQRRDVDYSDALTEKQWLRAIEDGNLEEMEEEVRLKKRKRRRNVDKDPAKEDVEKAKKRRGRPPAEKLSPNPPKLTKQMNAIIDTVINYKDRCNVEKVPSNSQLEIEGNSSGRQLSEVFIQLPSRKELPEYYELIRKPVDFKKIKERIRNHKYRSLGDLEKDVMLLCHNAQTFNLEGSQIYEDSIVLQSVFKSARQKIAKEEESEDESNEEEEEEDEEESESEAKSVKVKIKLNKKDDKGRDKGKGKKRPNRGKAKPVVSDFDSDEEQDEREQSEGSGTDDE
Target sequence in this assay (P40337 whole entry): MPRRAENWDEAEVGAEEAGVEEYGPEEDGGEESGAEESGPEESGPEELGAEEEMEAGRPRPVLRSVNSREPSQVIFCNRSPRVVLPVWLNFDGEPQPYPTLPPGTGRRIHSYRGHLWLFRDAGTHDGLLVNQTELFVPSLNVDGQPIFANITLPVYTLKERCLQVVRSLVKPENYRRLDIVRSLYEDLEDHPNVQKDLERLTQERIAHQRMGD

[5] = target: T1, von Hippel-Lindau disease tumor suppressor/SWI/SNF-related matrix-associated actin-dependent regulator of chromatin subfamily A member 2; experiment: PROTAC activity at VHL/SMARCA2 in human HT-1080 cells assessed as induction of SMARCA2 degradation by measuring maximum efficacy incubated for 6 hrs by Nano-Glo HiBiT Lytic Detection Assay relative to control; format: cell-based
Target sequence in this assay (P40337 whole entry, looked up): as the sequence (P40337 whole entry) above
Target sequence in this assay (P51531 whole entry, looked up): as the sequence (P51531 whole entry) above

[6] = target: T2, von Hippel-Lindau disease tumor suppressor/SWI/SNF-related matrix-associated actin-dependent regulator of chromatin subfamily A member 4 (Homo sapiens, UniProt P51532+P40337); experiment: PROTAC activity at VHL/SMARCA4 in human HT-1080 cells assessed as induction of SMARCA4 degradation incubated for 24 hrs by Nano-Glo HiBiT Lytic Detection Assay; format: cell-based
Target sequence in this assay (P51532 whole entry): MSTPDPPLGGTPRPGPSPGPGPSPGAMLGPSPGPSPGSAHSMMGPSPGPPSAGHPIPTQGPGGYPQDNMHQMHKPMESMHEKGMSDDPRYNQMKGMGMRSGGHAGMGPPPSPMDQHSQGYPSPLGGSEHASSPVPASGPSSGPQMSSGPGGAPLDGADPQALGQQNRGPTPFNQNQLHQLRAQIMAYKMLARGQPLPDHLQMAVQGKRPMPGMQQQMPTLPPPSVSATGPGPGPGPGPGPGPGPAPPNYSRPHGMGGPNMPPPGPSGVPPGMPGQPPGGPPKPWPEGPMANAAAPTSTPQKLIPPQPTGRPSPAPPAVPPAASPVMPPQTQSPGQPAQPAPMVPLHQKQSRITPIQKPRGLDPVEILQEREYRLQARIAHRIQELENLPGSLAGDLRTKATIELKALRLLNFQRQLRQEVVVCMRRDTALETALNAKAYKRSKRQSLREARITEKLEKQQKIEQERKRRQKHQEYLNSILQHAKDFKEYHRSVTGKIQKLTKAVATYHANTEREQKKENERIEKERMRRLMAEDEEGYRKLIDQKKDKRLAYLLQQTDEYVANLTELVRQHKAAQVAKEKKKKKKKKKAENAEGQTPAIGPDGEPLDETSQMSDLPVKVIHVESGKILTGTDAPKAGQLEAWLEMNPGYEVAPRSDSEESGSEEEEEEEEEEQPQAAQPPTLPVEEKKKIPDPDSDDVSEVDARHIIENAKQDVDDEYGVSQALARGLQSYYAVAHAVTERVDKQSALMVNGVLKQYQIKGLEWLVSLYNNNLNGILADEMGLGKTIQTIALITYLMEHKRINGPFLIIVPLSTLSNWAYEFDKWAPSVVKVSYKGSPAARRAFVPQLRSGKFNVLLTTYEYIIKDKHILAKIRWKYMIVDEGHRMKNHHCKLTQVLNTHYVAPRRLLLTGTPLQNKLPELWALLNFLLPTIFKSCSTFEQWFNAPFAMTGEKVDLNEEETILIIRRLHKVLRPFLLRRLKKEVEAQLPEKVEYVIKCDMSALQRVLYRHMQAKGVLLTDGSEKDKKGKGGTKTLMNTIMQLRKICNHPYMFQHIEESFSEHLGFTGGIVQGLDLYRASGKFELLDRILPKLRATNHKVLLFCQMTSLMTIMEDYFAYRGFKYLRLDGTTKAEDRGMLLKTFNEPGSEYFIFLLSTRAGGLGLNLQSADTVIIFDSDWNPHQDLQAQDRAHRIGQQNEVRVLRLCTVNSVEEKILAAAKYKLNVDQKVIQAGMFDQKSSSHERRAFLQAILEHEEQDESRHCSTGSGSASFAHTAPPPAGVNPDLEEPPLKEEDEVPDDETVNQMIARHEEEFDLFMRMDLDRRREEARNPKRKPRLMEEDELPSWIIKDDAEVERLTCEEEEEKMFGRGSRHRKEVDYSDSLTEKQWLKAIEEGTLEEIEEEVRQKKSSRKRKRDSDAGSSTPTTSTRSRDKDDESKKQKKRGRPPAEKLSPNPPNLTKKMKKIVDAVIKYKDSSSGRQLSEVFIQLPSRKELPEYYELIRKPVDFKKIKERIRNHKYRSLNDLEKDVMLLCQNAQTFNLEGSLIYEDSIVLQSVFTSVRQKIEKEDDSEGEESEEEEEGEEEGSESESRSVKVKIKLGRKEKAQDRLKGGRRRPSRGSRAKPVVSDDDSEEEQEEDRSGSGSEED
Target sequence in this assay (P40337 whole entry): as the sequence (P40337 whole entry) above

[7] = target: T2, von Hippel-Lindau disease tumor suppressor/SWI/SNF-related matrix-associated actin-dependent regulator of chromatin subfamily A member 4; experiment: PROTAC activity at VHL/SMARCA4 in human HT-1080 cells assessed as induction of SMARCA4 degradation by measuring maximum efficacy incubated for 6 hrs by Nano-Glo HiBiT Lytic Detection Assay relative to control; format: cell-based
Target sequence in this assay (P40337 whole entry, looked up): as the sequence (P40337 whole entry) above
Target sequence in this assay (P51532 whole entry, looked up): as the sequence (P51532 whole entry) above

[8] = Selectivity ratio of DC50 for PROTAC activity at VHL/SMARCA4 in human HT-1080 cells (unknown origin) to DC50 for VHL/SMARCA2 in human HT-1080 cells (unknown origin); format: cell-based
NCI-H838 [9] = experiment: Antiproliferative activity against human NCI-H838 cells assessed as cell growth inhibition incubated for 6 days by Cell Titer Glo assay; format: functional; settings: NCI-H838, 144 h, time 6 day
Calu-6 [10] = experiment: Antiproliferative activity against human Calu-6 cells assessed as cell growth inhibition incubated for 6 days by Cell Titer Glo assay; format: functional; settings: Calu-6, 144 h, time 6 day
[11] = target: T1, von Hippel-Lindau disease tumor suppressor/SWI/SNF-related matrix-associated actin-dependent regulator of chromatin subfamily A member 2; experiment: Binding affinity to flag-tagged SMARCA2/VHL (unknown origin) assessed as ternary complex formation by measuring HTRF signal incubated for 120 mins by Envision reader analysis; format: protein assay
Target sequence in this assay (P40337 whole entry, looked up): as the sequence (P40337 whole entry) above
Target sequence in this assay (P51531 whole entry, looked up): as the sequence (P51531 whole entry) above

[12] = target: T1, von Hippel-Lindau disease tumor suppressor/SWI/SNF-related matrix-associated actin-dependent regulator of chromatin subfamily A member 2; experiment: In vivo PROTAC activity at VHL/ SMARCA2 in female BALB/c mouse xenografted with human HT-1080 cells assessed as reduction in SMARCA2 level in tumor at 1 mg/kg, iv measured after 24 hrs relative to control; format: functional, organism-based; design: scale not given: the % may be the effect or the level left
Target sequence in this assay (P40337 whole entry, looked up): as the sequence (P40337 whole entry) above
Target sequence in this assay (P51531 whole entry, looked up): as the sequence (P51531 whole entry) above

NCI-H1373 = experiment: Antiproliferative activity against human NCI-H1373 cells assessed as inhibition of cell proliferation incubated for 6 days by Cell Titer Glo assay; format: functional, cell-based; settings: time 6.0 day
[13] = Metabolic stability in female BALB/c mouse microsomes assessed as half life administered intravenously; format: ADME; settings: route iv
Calu-6 [14] = experiment: Antiproliferative activity against human Calu-6 cells assessed as inhibition of cell proliferation incubated for 6 days by Cell Titer Glo assay; format: functional, cell-based; settings: time 6.0 day
HT-1080 = experiment: Antiproliferative activity against human HT-1080 cells assessed as inhibition of cell proliferation incubated for 6 days by Cell Titer Glo assay; format: functional, cell-based; settings: time 6.0 day
NCI-H838 [15] = experiment: Antiproliferative activity against human NCI-H838 cells assessed as inhibition of cell proliferation incubated for 6 days by Cell Titer Glo assay; format: functional, cell-based; settings: time 6.0 day
NCI-H1573 = experiment: Antiproliferative activity against human NCI-H1573 cells assessed as inhibition of cell proliferation incubated for 6 days by Cell Titer Glo assay; format: functional, cell-based; settings: time 6.0 day
NCI-H1568 = experiment: Antiproliferative activity against human NCI-H1568 cells assessed as inhibition of cell proliferation incubated for 6 days by Cell Titer Glo assay; format: functional, cell-based; settings: time 6.0 day
[16] = target: T1, von Hippel-Lindau disease tumor suppressor/SWI/SNF-related matrix-associated actin-dependent regulator of chromatin subfamily A member 2; experiment: In vivo PROTAC activity at VHL/ SMARCA2 in female BALB/c mouse xenografted with human HT-1080 cells assessed as reduction in SMARCA2 level in tumor at 10 mg/kg, iv measured after 24 hrs relative to control; format: functional, organism-based; design: scale not given: the % may be the effect or the level left
Target sequence in this assay (P40337 whole entry, looked up): as the sequence (P40337 whole entry) above
Target sequence in this assay (P51531 whole entry, looked up): as the sequence (P51531 whole entry) above

[17] = target: T2, von Hippel-Lindau disease tumor suppressor/SWI/SNF-related matrix-associated actin-dependent regulator of chromatin subfamily A member 4; experiment: In vivo PROTAC activity at VHL/ SMARCA4 in female BALB/c mouse xenografted with human HT-1080 cells at 1 mg/kg, iv measured after 24 hrs relative to control; format: functional, organism-based
Target sequence in this assay (P40337 whole entry, looked up): as the sequence (P40337 whole entry) above
Target sequence in this assay (P51532 whole entry, looked up): as the sequence (P51532 whole entry) above

[18] = target: T2, von Hippel-Lindau disease tumor suppressor/SWI/SNF-related matrix-associated actin-dependent regulator of chromatin subfamily A member 4; experiment: In vivo PROTAC activity at VHL/ SMARCA4 in female BALB/c mouse xenografted with human HT-1080 cells at 10 mg/kg, iv measured after 24 hrs relative to control; format: functional, organism-based
Target sequence in this assay (P40337 whole entry, looked up): as the sequence (P40337 whole entry) above
Target sequence in this assay (P51532 whole entry, looked up): as the sequence (P51532 whole entry) above

Chain of von Hippel-Lindau disease tumor suppressor (P40337 whole entry): as the sequence (P40337 whole entry) above
Chain of SWI/SNF-related matrix-associated actin-dependent regulator of chromatin subfamily A member 2 (P51531 whole entry): as the sequence (P51531 whole entry) above
Chain of SWI/SNF-related matrix-associated actin-dependent regulator of chromatin subfamily A member 4 (P51532 whole entry): as the sequence (P51532 whole entry) above

| IC50 [1] [nM] | IC50 [2] [nM] | IC50 [3] [nM] | DC50 [4] [nM] | Emax [5] [%] | DC50 [6] [nM] | Emax [7] [%] | Compound | Ratio [8] | other results |
| --- | --- | --- | --- | --- | --- | --- | --- | --- | --- |
| 3500 | 9100 |  |  |  |  |  | O=c1nc2n(c3cccc(Cl)c13)-c1ccc(C3CCNCC3)cc1C21CCNCC1 |  |  |
| 15 | 38 |  |  |  |  |  | CC1(C)c2ccc(C3CCNCC3)cc2-n2c1nc(=O)c1c(Cl)cccc12 |  |  |
| 53 | 150 |  |  |  |  |  | O=c1nc2n(c3cccc(Cl)c13)-c1ccc(C3CCNCC3)cc1C21CCCCCC1 |  |  |
| 8.8 | 18 |  |  |  |  |  | O=c1nc2n(c3cccc(Cl)c13)-c1ccc(C3CCNCC3)cc1C21CCCCC1 |  |  |
|  |  | 280 | 6.4 | 93 | > 1000 | 34 | Cc1ncsc1-c1ccc([C@H](C)NC(=O)[C@@H]2C[C@@H](O)CN2C(=O)[C@@H](NC(=O)[C@H]2CC[C@H](CN3CCC(c4ccc5c(c4)-n4c(nc(=O)c6c(Br)cccc64)C5(C)C)CC3)CC2)C(C)(C)C)cc1 | > 100 | GI50 (NCI-H838 [9]): 40 nM; GI50 (Calu-6 [10]): > 1000 nM |
| 47 | 43 | 9.3 | 0.16 | 99 | 1.2 | 97 | Cc1ncsc1-c1ccc([C@H](C)NC(=O)[C@@H]2C[C@@H](O)CN2C(=O)[C@@H](c2cc(OC3CCC(N4CCC(c5ccc6c(c5)C(C)(C)c5nc(=O)c7c(Cl)cccc7n5-6)CC4)CC3)no2)C(C)C)cc1 (stereo partly drawn) | 7.5 |  |
| 4.6 | 10 |  |  |  |  |  | O=c1nc2n(c3cccc(Br)c13)-c1ccc(C3CCNCC3)cc1C21CCCCC1 |  |  |
| 34 | 110 | 6.2 | 1.7 | 97 | 12 | 92 | Cc1ncsc1-c1ccc([C@H](C)NC(=O)[C@@H]2C[C@@H](O)CN2C(=O)[C@@H](c2cc(OCC(C)CN3CCC(c4ccc5c(c4)-n4c(nc(=O)c6c(Cl)cccc64)C5(C)C)CC3)no2)C(C)C)cc1 (stereo partly drawn) | 7 |  |
| 350 | 500 |  |  |  |  |  | Cc1ncsc1-c1ccc([C@H](C)NC(=O)[C@@H]2C[C@@H](O)CN2C(=O)[C@@H](c2cc(CN3CCC(c4ccc5c(c4)C(C)(C)c4nc(=O)c6c(Cl)cccc6n4-5)CC3)no2)C(C)C)cc1 |  |  |
| 16 | 27 | 6.4 | 0.61 | 98 | 3.9 |  | Cc1ncsc1-c1ccc([C@H](C)NC(=O)[C@@H]2C[C@@H](O)CN2C(=O)[C@@H](c2cc(N3CCC(CN4CCC(c5ccc6c(c5)C(C)(C)c5nc(=O)c7c(Cl)cccc7n5-6)CC4)CC3)no2)C(C)C)cc1 |  |  |
| 60 | 83 | 17 | 1.4 | 98 | 26 | 92 | Cc1ncsc1-c1ccc([C@H](C)NC(=O)[C@@H]2C[C@@H](O)CN2C(=O)[C@@H](c2cc(OCCCN3CCC(c4ccc5c(c4)C(C)(C)c4nc(=O)c6c(Cl)cccc6n4-5)CC3)no2)C(C)C)cc1 | 18 |  |
| 150 | 83 | 15 | 4.4 | 94 | 35 | 84 | Cc1ncsc1-c1ccc([C@H](C)NC(=O)[C@@H]2C[C@@H](O)CN2C(=O)[C@@H](c2cc(N3CCC(CN4CCC(c5cccc6c5C(C)(C)c5nc(=O)c7c(Cl)cccc7n5-6)CC4)CC3)no2)C(C)C)cc1 | 8 | Activity [11]: Active; Smarca2-Vhl Shows 30% Higher Auc Compared To Smarca4-Vhl Was Observed |
| 2.8 | 5.5 |  |  |  |  |  | CC1(C)c2cc(C3CCNCC3)ccc2-n2c1nc(=O)c1c(Br)cccc12 |  |  |
| 72 | 100 | 15 | 13 | 87 | 280 | 53 | Cc1ncsc1-c1ccc([C@H](C)NC(=O)[C@@H]2C[C@@H](O)CN2C(=O)[C@@H](c2cc(OCC3(CN4CCC(c5ccc6c(c5)C(C)(C)c5nc(=O)c7c(Cl)cccc7n5-6)CC4)CC3)no2)C(C)C)cc1 | 22 |  |
| 13 | 24 |  |  |  |  |  | O=c1nc2n(c3cccc(Cl)c13)-c1ccc(C3CCNCC3)cc1C21CCCC1 |  |  |
| 17 | 40 |  |  |  |  |  | O=c1nc2n(c3cccc(Cl)c13)-c1cc(C3CCNCC3)ccc1C21CCCCC1 |  |  |
| 88 | 79 | 22 | 2.1 | 96 | 31 | 80 | Cc1ncsc1-c1ccc([C@H](C)NC(=O)[C@@H]2C[C@@H](O)CN2C(=O)[C@@H](c2cc(OCCN3CCC(c4ccc5c(c4)C(C)(C)c4nc(=O)c6c(Cl)cccc6n4-5)CC3)no2)C(C)C)cc1 | 15 |  |
| 70 | 97 | 16 | 1.9 | 98 | 22 | 93 | Cc1ncsc1-c1ccc([C@H](C)NC(=O)[C@@H]2C[C@@H](O)CN2C(=O)[C@@H](c2cc(OCCCCN3CCC(c4ccc5c(c4)C(C)(C)c4nc(=O)c6c(Cl)cccc6n4-5)CC3)no2)C(C)C)cc1 | 12 |  |
|  |  | 2.1 | 0.22 | 98 | 0.85 | 97 | Cc1ncsc1-c1ccc([C@H](C)NC(=O)[C@@H]2C[C@@H](O)CN2C(=O)[C@H](C(C)C)n2cc([C@H]3CC[C@H](CN4CCC(c5ccc6c(c5)C(C)(C)c5nc(=O)c7c(Cl)cccc7n5-6)CC4)CC3)nn2)cc1 | 4 | Activity [12]: 94%; Activity (NCI-H1373): Active; GI50 (NCI-H838 [9]): 3 nM; GI50 (Calu-6 [10]): 280 nM; half-life [13]: 300 min; Activity (Calu-6 [14]): Active; Activity (HT-1080): Active; Activity (NCI-H838 [15]): Active; Activity (NCI-H1573): Active; Activity (NCI-H1568): Active; Activity [16]: > 95%; Activity [17]: 54%; Activity [18]: 93% |
| 68 | 170 |  |  |  |  |  | CC1(C)c2c(C3CCNCC3)cccc2-n2c1nc(=O)c1c(Cl)cccc12 |  |  |
| 12 | 36 |  |  |  |  |  | CC1(C)c2cc(C3CCNCC3)ccc2-n2c1nc(=O)c1c(Cl)cccc12 |  |  |
|  |  | 370 | 10 | 92 | > 1000 | 25 | Cc1ncsc1-c1ccc([C@H](C)NC(=O)[C@@H]2C[C@@H](O)CN2C(=O)[C@@H](NC(=O)[C@H]2CC[C@H](CN3CCC(c4ccc5c(c4)-n4c(nc(=O)c6c(Cl)cccc64)C5(C)C)CC3)CC2)C(C)(C)C)cc1 | > 100 |  |
